Assay results reported in ChEMBL document CHEMBL4257560, “Synthesis and antiviral activity of camphor-based 1,3-thiazolidin-4-one and thiazole derivatives as Orthopoxvirus-reproduction inhibitors” (Medchemcomm, 2018).

How the values were obtained:
Vaccinia virus = assay: Antiviral activity against Vaccinia virus Copenhagen infected in African green monkey Vero cells assessed as inhibition of viral reproduction after 4 days by neural red dye-based assay; format: functional, organism-based, Orthopoxvirus vaccinia
[1] = Cytotoxicity against African green monkey Vero cells after 4 days by neural red dye-based assay; format: cell-based; settings: chlorocebus sabaeus, read-out: TC50
[2] = Selectivity index, ratio of TC50 for African green monkey Vero cells to IC50 for Vaccinia virus Copenhagen; format: toxicity; settings: read-out: Selectivity Index
[3] = Orthopoxvirus vaccinia, Copenhagen, Vero, 96 h, read-out: IC50

SMILES	IC50 (Vaccinia virus; [3])	CC50 at 96 h [1]	selectivity ratio [2]	IC50 (Vaccinia virus; vero)
CC1(C)[C@H]2CC[C@]1(C)[C@H](OC(=O)CCN1CCOCC1)C2	3.5 µM			
CCCCN1C(=O)CS/C1=N\N=C1/C[C@H]2CC[C@]1(C)C2(C)C	3.2 µM	25.2 µM	8	
CC1(C)[C@@H]2CC[C@@]1(C)/C(=N/N=C1/NC(=S)CS1)C2	3.3 µM	17.5 µM	5	
C=CCN1C(=O)CS/C1=N\N=C1/C[C@H]2CC[C@]1(C)C2(C)C	14.4 µM	164 µM	11	
CC1(C)[C@@H]2CC[C@@]1(C)/C(=N/Nc1nc(-c3ccc([N+](=O)[O-])cc3)cs1)C2		261 µM		Not Active
COc1ccc(-c2csc(N/N=C3\C[C@H]4CC[C@]3(C)C4(C)C)n2)cc1	3.7 µM	93.6 µM	26	
CC1(C)[C@@H]2CC[C@@]1(C)/C(=N/Nc1nc(-c3ccc(Cl)cc3)cs1)C2	2.7 µM	64.1 µM	24	
CC1(C)[C@@H]2CC[C@@]1(C)/C(=N/Nc1nc(-c3ccc(F)cc3)cs1)C2		176 µM		Not Active
CC1CCN(CCC(=O)N[C@@H]2C[C@H]3CC[C@]2(C)C3(C)C)CC1	2.5 µM			
CC1(C)[C@@H]2CC[C@@]1(C)/C(=N/N=C1/NC(=O)/C(=C/c3ccccc3)S1)C2	5.2 µM	14.5 µM	3	
CC(C)CCN1C(=O)CS/C1=N\N=C1/C[C@H]2CC[C@]1(C)C2(C)C		37.5 µM		Not Active
CC1(C)[C@@H]2CC[C@@]1(C)/C(=N/NC(N)=S)C2	17.7 µM	225 µM	13	
CC1(C)[C@@H]2CC[C@@]1(C)/C(=N/N=C1/NC(=O)CS1)C2		305 µM		Not Active
CC1(C)[C@@H]2CC[C@@]1(C)/C(=N/N=C1\SCC(=O)N1Cc1ccccc1)C2		288 µM		Not Active
Cc1ccc(-c2csc(N/N=C3\C[C@H]4CC[C@]3(C)C4(C)C)n2)cc1	4.5 µM	13.7 µM	3	
CC1(C)[C@@H]2CC[C@@]1(C)/C(=N/Nc1nc(-c3ccccc3)cs1)C2	3.2 µM	13.9 µM		
CC1(C)[C@@H]2CC[C@@]1(C)/C(=N/Nc1nc(-c3ccc(Br)cc3)cs1)C2	2.4 µM	77.1 µM	32	
Cc1ccc(/C=C2\S/C(=N\N=C3/C[C@H]4CC[C@]3(C)C4(C)C)NC2=O)cc1 (stereo in doubt)	9.5 µM	120 µM	13	
Nc1ccn(C[C@@H](CO)OCP(=O)(O)O)c(=O)n1 [CIDOFOVIR]	40 µM	475 µM	12	
